From ChEMBL document CHEMBL1201862, “PubChem BioAssay data set” (2004)
Active and inactive are the calls of the source.

Columns and labels:
[1] = system: Streptococcus sp. 'group A'; assay: growth inhibition of control SK(-) GAS strain, dose response, counter-screen for streptokinase expression inhibitor project, luminescence, kanamycin, BacTiterGlo, confirmation (AID 1900); format: functional, organism-based
[2] = target: Tyrosine-protein kinase JAK2 (Homo sapiens, UniProt O60674); format: functional;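 note: JAK2 tested as one member of a kinase panel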
Chain of Tyrosine-protein kinase JAK2 (O60674 whole entry): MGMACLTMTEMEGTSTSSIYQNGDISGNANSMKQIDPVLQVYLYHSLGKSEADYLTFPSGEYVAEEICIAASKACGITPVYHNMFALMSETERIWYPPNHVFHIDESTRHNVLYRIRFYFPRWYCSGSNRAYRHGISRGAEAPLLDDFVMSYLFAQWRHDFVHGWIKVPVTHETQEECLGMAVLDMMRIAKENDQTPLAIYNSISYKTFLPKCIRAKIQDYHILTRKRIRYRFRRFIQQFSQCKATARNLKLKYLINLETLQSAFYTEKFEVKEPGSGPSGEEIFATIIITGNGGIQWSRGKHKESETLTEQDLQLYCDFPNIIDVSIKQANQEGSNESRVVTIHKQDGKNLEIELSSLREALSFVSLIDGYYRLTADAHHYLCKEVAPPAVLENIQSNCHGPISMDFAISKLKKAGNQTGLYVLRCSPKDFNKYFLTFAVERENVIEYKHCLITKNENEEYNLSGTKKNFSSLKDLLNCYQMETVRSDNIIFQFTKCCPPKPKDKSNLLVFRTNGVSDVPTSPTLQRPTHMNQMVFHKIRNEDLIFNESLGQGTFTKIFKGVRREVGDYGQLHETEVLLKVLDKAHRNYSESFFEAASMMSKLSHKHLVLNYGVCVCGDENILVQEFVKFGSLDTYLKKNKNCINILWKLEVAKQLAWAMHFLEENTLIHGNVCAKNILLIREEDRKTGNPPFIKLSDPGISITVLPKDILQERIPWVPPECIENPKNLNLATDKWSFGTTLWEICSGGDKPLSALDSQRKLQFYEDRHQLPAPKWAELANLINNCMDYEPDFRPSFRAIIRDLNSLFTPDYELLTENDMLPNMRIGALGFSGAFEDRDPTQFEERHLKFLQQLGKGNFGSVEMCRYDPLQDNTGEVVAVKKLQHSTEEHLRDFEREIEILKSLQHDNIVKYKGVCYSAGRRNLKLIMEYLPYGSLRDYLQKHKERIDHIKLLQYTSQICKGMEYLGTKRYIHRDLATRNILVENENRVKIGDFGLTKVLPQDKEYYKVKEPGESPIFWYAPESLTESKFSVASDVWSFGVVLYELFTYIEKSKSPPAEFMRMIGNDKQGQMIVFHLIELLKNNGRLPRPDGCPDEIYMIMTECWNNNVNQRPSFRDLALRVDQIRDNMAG

[3] = target: Proto-oncogene tyrosine-protein kinase receptor Ret (Homo sapiens, UniProt P07949); format: functional;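 note: measured within a kinome-wide profiling panel, RET as the panel member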
[4] = target: T1, Activin receptor type-1 (Homo sapiens, UniProt Q04771); assay: Navigating the Kinome. Panel member name: ACVR1; format: functional
T1 sequence (Q04771 whole entry): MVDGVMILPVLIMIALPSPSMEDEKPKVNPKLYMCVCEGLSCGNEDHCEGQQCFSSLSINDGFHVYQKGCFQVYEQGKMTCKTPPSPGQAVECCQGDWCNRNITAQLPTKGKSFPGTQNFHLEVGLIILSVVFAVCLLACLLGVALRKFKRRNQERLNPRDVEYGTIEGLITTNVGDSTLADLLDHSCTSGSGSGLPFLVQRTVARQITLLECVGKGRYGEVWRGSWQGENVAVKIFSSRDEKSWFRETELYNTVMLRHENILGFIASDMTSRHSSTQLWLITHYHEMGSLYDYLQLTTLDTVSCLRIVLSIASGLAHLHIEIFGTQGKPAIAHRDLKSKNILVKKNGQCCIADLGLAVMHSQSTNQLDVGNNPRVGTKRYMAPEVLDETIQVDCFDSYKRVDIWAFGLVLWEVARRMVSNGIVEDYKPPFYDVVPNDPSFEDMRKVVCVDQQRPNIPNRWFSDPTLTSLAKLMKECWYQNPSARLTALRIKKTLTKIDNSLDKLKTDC

[5] = target: Mitogen-activated protein kinase 8 (Homo sapiens, UniProt P45983); format: functional;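 note: value comes from one member of a kinome-wide kinase profiling panel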
Chain of Mitogen-activated protein kinase 8 (P45983 whole entry): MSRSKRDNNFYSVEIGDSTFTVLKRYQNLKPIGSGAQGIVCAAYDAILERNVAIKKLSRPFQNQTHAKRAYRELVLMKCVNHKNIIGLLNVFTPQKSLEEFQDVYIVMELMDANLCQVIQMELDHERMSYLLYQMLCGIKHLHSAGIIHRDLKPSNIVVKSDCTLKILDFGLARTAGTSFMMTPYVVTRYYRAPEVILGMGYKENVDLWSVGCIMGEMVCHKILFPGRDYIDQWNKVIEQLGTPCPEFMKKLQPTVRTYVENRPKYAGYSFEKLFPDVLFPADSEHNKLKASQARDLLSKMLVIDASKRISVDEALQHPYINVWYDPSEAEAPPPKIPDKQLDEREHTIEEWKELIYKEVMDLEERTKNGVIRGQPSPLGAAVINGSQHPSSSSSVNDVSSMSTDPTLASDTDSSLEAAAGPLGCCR

[6] = target: Aurora kinase A (Homo sapiens, UniProt O14965); format: functional;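 note: value from the Navigating the Kinome kinase panel profiling, panel entry STK6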
Chain of Aurora kinase A (O14965 whole entry): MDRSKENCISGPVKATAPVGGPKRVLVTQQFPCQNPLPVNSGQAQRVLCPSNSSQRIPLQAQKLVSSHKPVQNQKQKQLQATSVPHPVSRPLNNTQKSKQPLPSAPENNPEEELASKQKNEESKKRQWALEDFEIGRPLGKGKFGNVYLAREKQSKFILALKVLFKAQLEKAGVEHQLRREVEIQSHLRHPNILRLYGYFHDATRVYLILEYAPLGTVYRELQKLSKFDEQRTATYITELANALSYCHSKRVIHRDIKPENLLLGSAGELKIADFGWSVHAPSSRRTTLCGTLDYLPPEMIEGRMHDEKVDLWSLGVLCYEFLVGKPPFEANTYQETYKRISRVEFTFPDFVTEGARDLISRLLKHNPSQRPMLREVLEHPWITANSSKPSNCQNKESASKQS

[7] = target: Serine/threonine-protein kinase PAK 4 (Homo sapiens, UniProt O96013); format: functional;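 note: value obtained within a kinome profiling panel in which PAK4 was one of the panel members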
[8] = target: Glycogen synthase kinase-3 alpha (Homo sapiens, UniProt P49840); format: functional;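 note: GSK3A result taken from a broad kinome-wide kinase panel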
Chain of Glycogen synthase kinase-3 alpha (P49840 whole entry): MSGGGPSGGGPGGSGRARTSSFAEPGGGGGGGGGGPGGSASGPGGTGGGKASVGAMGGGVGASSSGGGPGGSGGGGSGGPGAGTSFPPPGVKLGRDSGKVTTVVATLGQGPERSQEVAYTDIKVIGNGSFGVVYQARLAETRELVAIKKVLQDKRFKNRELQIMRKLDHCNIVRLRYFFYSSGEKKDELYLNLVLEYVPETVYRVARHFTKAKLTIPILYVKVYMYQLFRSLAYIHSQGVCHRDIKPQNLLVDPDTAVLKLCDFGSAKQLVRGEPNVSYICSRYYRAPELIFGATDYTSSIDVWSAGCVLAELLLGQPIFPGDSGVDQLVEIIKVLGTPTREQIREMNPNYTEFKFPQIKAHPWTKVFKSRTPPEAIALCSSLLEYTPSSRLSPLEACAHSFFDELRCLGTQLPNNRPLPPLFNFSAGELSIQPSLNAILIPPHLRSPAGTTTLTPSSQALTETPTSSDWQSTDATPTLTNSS

[9] = target: Activated CDC42 kinase 1 (Homo sapiens, UniProt Q07912); assay: Navigating the Kinome. Panel member name: ACK1; format: functional
Chain of Activated CDC42 kinase 1 (Q07912 whole entry): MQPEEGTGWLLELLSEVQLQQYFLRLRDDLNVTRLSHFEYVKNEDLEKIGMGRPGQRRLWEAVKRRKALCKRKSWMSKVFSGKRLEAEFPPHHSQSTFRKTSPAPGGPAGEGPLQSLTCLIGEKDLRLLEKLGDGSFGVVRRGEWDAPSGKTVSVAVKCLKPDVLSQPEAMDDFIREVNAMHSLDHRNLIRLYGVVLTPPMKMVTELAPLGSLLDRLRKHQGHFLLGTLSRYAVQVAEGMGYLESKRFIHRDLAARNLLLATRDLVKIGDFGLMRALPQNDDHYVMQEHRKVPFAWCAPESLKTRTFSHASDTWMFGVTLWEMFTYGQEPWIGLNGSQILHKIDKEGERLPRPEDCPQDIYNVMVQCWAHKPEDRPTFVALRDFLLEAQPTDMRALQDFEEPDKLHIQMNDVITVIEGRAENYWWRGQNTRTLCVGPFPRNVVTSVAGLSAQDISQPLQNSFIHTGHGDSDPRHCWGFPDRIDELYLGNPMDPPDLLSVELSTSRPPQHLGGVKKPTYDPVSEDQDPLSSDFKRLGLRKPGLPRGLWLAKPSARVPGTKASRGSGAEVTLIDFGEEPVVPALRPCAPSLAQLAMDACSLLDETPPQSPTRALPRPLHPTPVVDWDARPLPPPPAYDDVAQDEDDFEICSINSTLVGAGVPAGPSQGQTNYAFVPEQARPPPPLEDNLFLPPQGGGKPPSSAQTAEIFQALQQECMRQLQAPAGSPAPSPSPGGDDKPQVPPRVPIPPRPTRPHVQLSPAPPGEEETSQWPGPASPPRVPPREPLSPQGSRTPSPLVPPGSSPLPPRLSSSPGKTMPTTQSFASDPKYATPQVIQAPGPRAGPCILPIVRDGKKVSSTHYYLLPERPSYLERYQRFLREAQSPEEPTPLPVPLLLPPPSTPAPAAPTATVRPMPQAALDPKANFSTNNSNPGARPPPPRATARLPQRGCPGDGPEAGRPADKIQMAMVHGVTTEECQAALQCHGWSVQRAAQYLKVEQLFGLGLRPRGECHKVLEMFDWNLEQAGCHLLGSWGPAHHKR

[10] = target: Vascular endothelial growth factor receptor 1 (Homo sapiens, UniProt P17948); format: functional;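 note: measured within a kinome-wide profiling panel, FLT1 as the panel member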
[11] = target: Dual specificity protein kinase CLK4 (Homo sapiens, UniProt Q9HAZ1); format: functional
Chain of Dual specificity protein kinase CLK4 (Q9HAZ1 whole entry): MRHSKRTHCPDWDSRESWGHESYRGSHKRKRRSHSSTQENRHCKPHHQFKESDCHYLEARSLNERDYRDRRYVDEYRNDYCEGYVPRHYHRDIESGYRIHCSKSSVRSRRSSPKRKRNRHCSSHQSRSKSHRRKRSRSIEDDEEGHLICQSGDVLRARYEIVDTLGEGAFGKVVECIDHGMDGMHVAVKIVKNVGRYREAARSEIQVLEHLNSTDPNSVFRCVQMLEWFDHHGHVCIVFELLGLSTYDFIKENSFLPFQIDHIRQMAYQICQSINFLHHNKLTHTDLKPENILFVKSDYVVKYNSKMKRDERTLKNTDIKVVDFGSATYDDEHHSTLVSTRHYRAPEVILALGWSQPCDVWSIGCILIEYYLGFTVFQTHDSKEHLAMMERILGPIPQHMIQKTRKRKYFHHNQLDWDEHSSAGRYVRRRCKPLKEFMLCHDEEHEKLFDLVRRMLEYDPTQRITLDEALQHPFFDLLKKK

[12] = target: Macrophage colony-stimulating factor 1 receptor (Homo sapiens, UniProt P07333); format: functional;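 note: value comes from the Navigating the Kinome screening panel, CSF1R member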
Chain of Macrophage colony-stimulating factor 1 receptor (P07333 whole entry): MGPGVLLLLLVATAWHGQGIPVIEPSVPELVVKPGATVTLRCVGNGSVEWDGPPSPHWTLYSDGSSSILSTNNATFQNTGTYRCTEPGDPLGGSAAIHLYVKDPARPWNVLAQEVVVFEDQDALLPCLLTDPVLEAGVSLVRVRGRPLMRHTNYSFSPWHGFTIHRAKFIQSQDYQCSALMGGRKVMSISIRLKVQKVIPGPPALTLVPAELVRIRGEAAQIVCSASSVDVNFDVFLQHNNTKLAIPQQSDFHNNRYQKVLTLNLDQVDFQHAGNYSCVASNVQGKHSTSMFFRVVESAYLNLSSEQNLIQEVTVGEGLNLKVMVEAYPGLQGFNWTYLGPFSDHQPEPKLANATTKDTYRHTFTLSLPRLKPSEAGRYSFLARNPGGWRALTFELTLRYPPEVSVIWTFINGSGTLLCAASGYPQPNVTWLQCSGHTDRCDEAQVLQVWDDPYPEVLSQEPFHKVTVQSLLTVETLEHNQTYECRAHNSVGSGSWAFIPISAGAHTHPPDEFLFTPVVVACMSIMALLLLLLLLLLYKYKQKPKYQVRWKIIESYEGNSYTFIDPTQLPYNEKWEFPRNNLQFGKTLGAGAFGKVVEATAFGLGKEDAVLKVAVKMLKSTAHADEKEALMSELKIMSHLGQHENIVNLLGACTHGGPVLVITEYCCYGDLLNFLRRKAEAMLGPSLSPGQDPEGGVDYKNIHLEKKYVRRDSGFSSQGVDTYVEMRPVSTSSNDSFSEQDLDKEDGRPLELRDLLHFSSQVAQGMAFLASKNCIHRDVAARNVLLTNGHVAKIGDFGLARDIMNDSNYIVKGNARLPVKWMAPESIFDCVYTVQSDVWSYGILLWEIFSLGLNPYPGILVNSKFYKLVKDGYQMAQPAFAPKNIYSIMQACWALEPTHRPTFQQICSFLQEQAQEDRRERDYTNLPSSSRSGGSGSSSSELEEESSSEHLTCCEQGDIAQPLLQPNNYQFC

[13] = target: Dual specificity tyrosine-phosphorylation-regulated kinase 1A (Homo sapiens, UniProt Q13627); format: functional;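 note: measured against DYRK1A as one member of a broad kinome profiling panel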
[14] = target: T2, Inhibitor of nuclear factor kappa-B kinase subunit epsilon (Homo sapiens, UniProt Q14164); assay: Navigating the Kinome. Panel member name: IKBKE; format: functional
T2 sequence (Q14164 whole entry): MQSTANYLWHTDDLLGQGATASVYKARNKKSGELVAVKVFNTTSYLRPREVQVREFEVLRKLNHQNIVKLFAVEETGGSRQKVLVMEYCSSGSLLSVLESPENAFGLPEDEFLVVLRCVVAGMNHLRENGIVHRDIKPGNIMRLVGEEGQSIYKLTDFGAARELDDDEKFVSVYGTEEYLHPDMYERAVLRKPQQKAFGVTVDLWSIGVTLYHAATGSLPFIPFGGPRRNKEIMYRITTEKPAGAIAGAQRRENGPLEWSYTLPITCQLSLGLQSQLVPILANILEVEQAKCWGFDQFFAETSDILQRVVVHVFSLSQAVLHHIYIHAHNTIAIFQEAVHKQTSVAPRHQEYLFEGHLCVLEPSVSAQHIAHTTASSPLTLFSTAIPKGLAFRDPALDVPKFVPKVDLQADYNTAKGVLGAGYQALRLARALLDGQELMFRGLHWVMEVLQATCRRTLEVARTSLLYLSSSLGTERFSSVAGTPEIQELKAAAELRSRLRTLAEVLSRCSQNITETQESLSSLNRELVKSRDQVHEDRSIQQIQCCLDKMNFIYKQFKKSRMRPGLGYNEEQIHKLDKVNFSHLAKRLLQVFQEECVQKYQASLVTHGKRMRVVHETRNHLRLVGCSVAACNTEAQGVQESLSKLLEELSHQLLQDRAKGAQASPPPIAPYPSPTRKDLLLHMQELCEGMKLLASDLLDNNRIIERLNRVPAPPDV

Ki [2] | Ki [3] | Ki [4] | Ki [5] | Ki [6] | Ki [7] | Ki [8] | Ki [9] | Ki [10] | Ki [11] | Ki [12] | Ki [13] | Ki [14] | SMILES | EC50 [1] | also measured
– | – | – | – | – | – | – | – | – | – | – | – | – | CCOC(=O)c1ccc(NC2=CC(=O)C(=O)c3ccccc32)cc1 | 2300 nM (active) | –
– | – | – | – | – | – | – | – | – | – | – | – | – | CCCCCCCCCCCCCCCC[N+](C)(C)C | 2060 nM (active) | –
794 nM (active) | 2000 nM (active) | 631 nM (active) | 1260 nM (active) | > 1580 nM (inactive) | 39.8 nM (active) | 398 nM (active) | 2000 nM (active) | > 3980 nM (inactive) | 1 nM (active) | 126 nM (active) | 25.1 nM (active) | 2510 nM (active) | NC1CCC(Nc2nc(Cl)cc(-c3c[nH]c4ncccc34)n2)CC1 (centres undefined) | – | pKi [2]: 6.1; pKi [3]: 5.7; pKi [4]: 6.2; pKi [5]: 5.9; pKi [7]: 7.4; pKi [8]: 6.4; pKi [9]: 5.7; pKi [11]: 9; pKi [12]: 6.9; pKi [13]: 7.6; pKi [14]: 5.6
> 2510 nM (inactive) | > 3160 nM (inactive) | 126 nM (active) | > 5010 nM (inactive) | > 1580 nM (inactive) | > 5010 nM (inactive) | > 3980 nM (inactive) | > 3980 nM (inactive) | > 3980 nM (inactive) | > 2510 nM (inactive) | > 2510 nM (inactive) | > 2000 nM (inactive) | > 3160 nM (inactive) | O=C(O)C1CN(Cc2ccc(OCc3ccccc3)cc2Cl)C1 | – | –
